# Data published in ChEMBL document CHEMBL1151504, “Structure-activity relationships of double-strand RGD peptides as GPIIb/IIIa receptor antogonists” (Bioorg Med Chem Lett, 1994).
# Numbered stars: 1 amine (or outer) side, 2 acyl side, 3 side chain; on linkers, the order of the positions; unused ones are H or OH. Bridge positions count the residues as written; N and C are the ends. Square brackets hold non-standard residues; d marks the D form. Peptide text beside a SMILES is read from it. I, II: the chains in the order shown. * marks the point of attachment. Benzoyl(4-guanidino) = N=C(N)Nc1ccc(C(=O)*)cc1; X1 = NC(=O)c1cc(N[*:1])cc(N[*:2])c1; Adipoyl = O=C(CCCCC(=O)[*:2])[*:1]; Glutaryl = O=C(CCCC(=O)[*:2])[*:1]; Suc = O=C(CCC(=O)[*:2])[*:1]; X2 = O=C1Oc2ccccc2CC1C(=O)*; 3Abz = Nc1cccc(C(=O)O)c1; 4Abz = Nc1ccc(C(=O)O)cc1; 2Abz = Nc1ccccc1C(=O)O; Hexanoyl = CCCCCC(=O)*; Bz = O=C(c1ccccc1)*
# Organism: Homo sapiens
# Assay: In vitro inhibition of ADP induced human platelet aggregation in platelet rich plasma(PRP) and presence of Tris buffer.
# Format: functional
row,SMILES,IC50
1,NCC(=O)N[C@@H](CCCN=C(N)N)C(=O)NCC(=O)N[C@@H](CC(=O)O)C(=O)N[C@@H](Cc1ccccc1)C(=O)NCC(=O)Nc1cc(NC(=O)CNC(=O)[C@H](Cc2ccccc2)NC(=O)[C@H](CC(=O)O)NC(=O)CNC(=O)[C@H](CCCN=C(N)N)NC(=O)CN)cc(C(=O)NCC(=O)N[C@@H](CCCN=C(N)N)C(=O)NCC(=O)N[C@@H](CC(=O)O)C(=O)N[C@@H](Cc2ccccc2)C(N)=O)c1,33 µM
2,NC(=O)[C@H](CCCCNC(=O)[C@H](Cc1ccccc1)NC(=O)[C@H](CC(=O)O)NC(=O)CNC(=O)[C@@H](N)CCCN=C(N)N)NC(=O)[C@H](Cc1ccccc1)NC(=O)[C@H](CC(=O)O)NC(=O)CNC(=O)[C@@H](N)CCCN=C(N)N,35 µM
3,N=C(N)NCCC[C@H](NC(=O)c1ccccc1)C(=O)NCC(=O)N[C@@H](CC(=O)O)C(=O)N[C@@H](Cc1ccccc1)C(=O)NCCCC[C@H](NC(=O)[C@H](Cc1ccccc1)NC(=O)[C@H](CC(=O)O)NC(=O)CNC(=O)[C@H](CCCN=C(N)N)NC(=O)c1ccccc1)C(N)=O,2.6 µM
4,NC(N)=NCCC[C@H](NC(=O)C1CC(NC(=O)[C@H](Cc2ccccc2)NC(=O)[C@H](CC(=O)O)NC(=O)CNC(=O)[C@@H](N)CCCN=C(N)N)CC(NC(=O)[C@H](Cc2ccccc2)NC(=O)[C@H](CC(=O)O)NC(=O)CNC(=O)[C@@H](N)CCCN=C(N)N)C1)C(=O)NCC(=O)N[C@@H](CC(=O)O)C(=O)N[C@@H](Cc1ccccc1)C(=O)O (stereo partly specified),22 µM
5,NC(=O)C1CC(NC(=O)[C@H](Cc2ccccc2)NC(=O)[C@H](CC(=O)O)NC(=O)CNC(=O)[C@@H](N)CCCN=C(N)N)CC(NC(=O)[C@H](Cc2ccccc2)NC(=O)[C@H](CC(=O)O)NC(=O)CNC(=O)[C@@H](N)CCCN=C(N)N)C1 (stereo partly specified),50 µM
6,CCCCCC(=O)N[C@@H](CCCN=C(N)N)C(=O)NCC(=O)N[C@@H](CC(=O)O)C(=O)N[C@@H](Cc1ccccc1)C(=O)N1CCC[C@H]1C(=O)NCC(=O)Nc1cc(NC(=O)CNC(=O)[C@H]2CCCN2C(=O)[C@@H](Cc2ccccc2)NC(=O)[C@@H](CC(=O)O)NC(=O)CNC(=O)[C@@H](CCCN=C(N)N)NC(=O)CCCCC)cc(C(N)=O)c1,0.35 µM
7,N=C(N)NCCC[C@H](NC(=O)c1ccccc1)C(=O)NCC(=O)N[C@@H](CC(=O)O)C(=O)N[C@@H](Cc1ccccc1)C(=O)NC1CC(NC(=O)[C@H](Cc2ccccc2)NC(=O)[C@H](CC(=O)O)NC(=O)CNC(=O)[C@H](CCCN=C(N)N)NC(=O)c2ccccc2)CC(C(=O)N[C@@H](CCCN=C(N)N)C(=O)NCC(=O)N[C@@H](CC(=O)O)C(=O)N[C@@H](Cc2ccccc2)C(=O)O)C1 (stereo partly specified),7.4 µM
8,N=C(N)NCCC[C@@H](NC(=O)c1ccccc1C(=O)N[C@@H](CCCN=C(N)N)C(=O)NCC(=O)N[C@@H](CC(=O)O)C(=O)N[C@@H](Cc1ccccc1)C(=O)O)C(=O)NCC(=O)N[C@H](CC(=O)O)C(=O)N[C@H](Cc1ccccc1)C(=O)O,13 µM
9,CCCCCC(=O)N[C@@H](CCCN=C(N)N)C(=O)NCC(=O)N[C@@H](CC(=O)O)C(=O)N[C@@H](Cc1ccccc1)C(=O)NCCCC[C@H](NC(=O)[C@H](Cc1ccccc1)NC(=O)[C@H](CC(=O)O)NC(=O)CNC(=O)[C@H](CCCN=C(N)N)NC(=O)CCCCC)C(N)=O,2.3 µM
10,NCC(=O)N[C@@H](CCCN=C(N)N)C(=O)NCC(=O)N[C@@H](CC(=O)O)C(=O)N[C@@H](Cc1ccccc1)C(=O)NCC(=O)Nc1ccccc1C(=O)NCC(=O)N[C@@H](CCCN=C(N)N)C(=O)NCC(=O)N[C@@H](CC(=O)O)C(=O)N[C@@H](Cc1ccccc1)C(=O)O (H-GRGDFG[2Abz]GRGDF-OH),63 µM
11,NCC(=O)N[C@@H](CCCN=C(N)N)C(=O)NCC(=O)N[C@@H](CC(=O)O)C(=O)N[C@@H](Cc1ccccc1)C(=O)NCC(=O)Nc1cccc(C(=O)NCC(=O)N[C@@H](CCCN=C(N)N)C(=O)NCC(=O)N[C@@H](CC(=O)O)C(=O)N[C@@H](Cc2ccccc2)C(=O)O)c1 (H-GRGDFG[3Abz]GRGDF-OH),19 µM
12,NCC(=O)N[C@@H](CCCN=C(N)N)C(=O)NCC(=O)N[C@@H](CC(=O)O)C(=O)N[C@@H](Cc1ccccc1)C(=O)NCC(=O)Nc1ccc(C(=O)NCC(=O)N[C@@H](CCCN=C(N)N)C(=O)NCC(=O)N[C@@H](CC(=O)O)C(=O)N[C@@H](Cc2ccccc2)C(=O)O)cc1 (H-GRGDFG[4Abz]GRGDF-OH),35 µM
13,CC(=O)N[C@@H](CCCN=C(N)N)C(=O)NCC(=O)N[C@@H](CC(=O)O)C(=O)N[C@@H](Cc1ccccc1)C(=O)N1CCC[C@H]1C(=O)NCCCC[C@H](NC(=O)[C@@H]1CCCN1C(=O)[C@H](Cc1ccccc1)NC(=O)[C@H](CC(=O)O)NC(=O)CNC(=O)[C@H](CCCN=C(N)N)NC(C)=O)C(N)=O (I: Ac-RGDFPK-NH2 / II: Ac-RGDFP; amide I:6-II:C),4.1 µM
14,N=C(N)NCCC[C@H](NC(=O)c1ccccc1)C(=O)NCC(=O)N[C@@H](CC(=O)O)C(=O)N[C@@H](Cc1ccccc1)C(=O)N1CCC[C@H]1C(=O)NCCCC[C@H](NC(=O)[C@@H]1CCCN1C(=O)[C@H](Cc1ccccc1)NC(=O)[C@H](CC(=O)O)NC(=O)CNC(=O)[C@H](CCCN=C(N)N)NC(=O)c1ccccc1)C(N)=O (I: Bz-RGDFPK-NH2 / II: Bz-RGDFP; amide I:6-II:C),2.2 µM
15,NC(=O)c1cc(NC(=O)CNC(=O)[C@@H]2CCCN2C(=O)[C@H](Cc2ccccc2)NC(=O)[C@H](CC(=O)O)NC(=O)CNC(=O)[C@@H](N)CCCN=C(N)N)cc(NC(=O)CNC(=O)[C@@H]2CCCN2C(=O)[C@H](Cc2ccccc2)NC(=O)[C@H](CC(=O)O)NC(=O)CNC(=O)[C@@H](N)CCCN=C(N)N)c1 (I: H-RGDFPG / II: H-RGDFPG; linker I:C-II:C via X1),13 µM
16,CCCCCC(=O)N[C@@H](CCCN=C(N)N)C(=O)NCC(=O)N[C@@H](CC(=O)O)C(=O)N[C@@H](Cc1ccccc1)C(=O)N1CCC[C@H]1C(=O)NCCCC[C@H](NC(=O)[C@@H]1CCCN1C(=O)[C@H](Cc1ccccc1)NC(=O)[C@H](CC(=O)O)NC(=O)CNC(=O)[C@H](CCCN=C(N)N)NC(=O)CCCCC)C(N)=O (I: Hexanoyl-RGDFPK-NH2 / II: Hexanoyl-RGDFP; amide I:6-II:C),1.2 µM
17,N=C(N)NCCC[C@H](NC(=O)CCCCC(=O)N[C@@H](CCCNC(=N)N)C(=O)NCC(=O)N[C@@H](CC(=O)O)C(=O)N[C@@H](Cc1ccccc1)C(=O)O)C(=O)NCC(=O)N[C@@H](CC(=O)O)C(=O)N[C@@H](Cc1ccccc1)C(=O)O (I: RGDF-OH / II: RGDF-OH; linker I:N-II:N via Adipoyl),14 µM
18,N=C(N)NCCC[C@H](NC(=O)CCCC(=O)N[C@@H](CCCNC(=N)N)C(=O)NCC(=O)N[C@@H](CC(=O)O)C(=O)N[C@@H](Cc1ccccc1)C(=O)O)C(=O)NCC(=O)N[C@@H](CC(=O)O)C(=O)N[C@@H](Cc1ccccc1)C(=O)O (I: RGDF-OH / II: RGDF-OH; linker I:N-II:N via Glutaryl),15 µM
19,N=C(N)NCCC[C@H](NC(=O)CCC(=O)N[C@@H](CCCNC(=N)N)C(=O)NCC(=O)N[C@@H](CC(=O)O)C(=O)N[C@@H](Cc1ccccc1)C(=O)O)C(=O)NCC(=O)N[C@@H](CC(=O)O)C(=O)N[C@@H](Cc1ccccc1)C(=O)O (I: RGDF-OH / II: RGDF-OH; linker I:N-II:N via Suc),15 µM
20,N=C(N)NCCC[C@H](NC(=O)C1Cc2ccccc2OC1=O)C(=O)NCC(=O)N[C@@H](CC(=O)O)C(=O)N[C@@H](Cc1ccccc1)C(=O)N1CCC[C@H]1C(=O)NCCCC[C@H](NC(=O)[C@@H]1CCCN1C(=O)[C@H](Cc1ccccc1)NC(=O)[C@H](CC(=O)O)NC(=O)CNC(=O)[C@H](CCCNC(=N)N)NC(=O)C1Cc2ccccc2OC1=O)C(N)=O (stereo partly specified) (I: X2-RGDFPK-NH2 / II: X2-RGDFP; amide I:6-II:C),2 µM
21,N=C(N)NCCC[C@H](NC(=O)[C@H](CO)NC(=O)c1ccc(NC(=N)N)cc1)C(=O)NCC(=O)N[C@@H](CC(=O)O)C(=O)N[C@@H](Cc1ccccc1)C(=O)N1CCC[C@H]1C(=O)NCCCC[C@H](NC(=O)[C@@H]1CCCN1C(=O)[C@H](Cc1ccccc1)NC(=O)[C@H](CC(=O)O)NC(=O)CNC(=O)[C@H](CCCNC(=N)N)NC(=O)[C@H](CO)NC(=O)c1ccc(NC(=N)N)cc1)C(N)=O (I: {Benzoyl(4-guanidino)}-SRGDFPK-NH2 / II: {Benzoyl(4-guanidino)}-SRGDFP; amide I:7-II:C),0.087 µM
